From ChEMBL document CHEMBL1201862, “PubChem BioAssay data set” (2004) come the findings set out here.

Experiment in all cases: DTP human tumour cell line panel, 48 h
Assay [1] has as its system DMS-114.
Assay [2] relates to DMS-273.
Assay [3] relates to KM-20L2.
For assay [4], the system named is LXFL 529.
Assay [5] has as its system XF498.
Assay [6] relates to DLD-1.
The test system of assay [7] is HOP-18.
Assay [8] relates to SNB-78.
The subject of assay [9] is RXF 631.

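Cultured in 96-well plates, cells were exposed to test compound for 48 hours across five concentrations. The concentration for 50% growth inhibition is given as GI50.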 Activity calls are given as the source filed them. No stated cut-off is given here; in the data, active = GI50 up to about 1.1 µM and inactive = higher.

One may read the GI50 as the concentration at which growth is held to half of that of the control.

Take `CCOC(C[C@H](O[Si](C)(C)C(C)(C)C)[C@H]1COC(=S)S1)OCC`: the GI50 in assay [1] was 36.7 µM (inactive); in [2], 30.1 µM (inactive); in [3] it was 41.4 µM (inactive); in assay [4], 33.1 µM (inactive); in assay [5] it was 27.2 µM (inactive).

Consider `O=C(O)C12C3C4C1C1C2C3C1(Br)C41OCCO1` (stereo not drawn), for which the GI50 in assay [6], in assay [1], in [2], in assay [7], in assay [3] and in assay [4] was > 100 µM (inactive) each time. Also, the GI50 in assay [8] and in assay [5] was > 100 µM (inactive) each time.

Consider `Cc1c2cc[n+](C)cc2c(C)c2c1[nH]c1ccc(Oc3ccccc3)cc12`, for which the GI50 is 1.3 µM (inactive) in assay [6], 0.387 µM (active) in [2], 0.927 µM (active) in assay [3] and 0.296 µM (active) in assay [4].

`COc1ccc2nc(NC(=O)C(=O)C(C#N)c3ccc([N+](=O)[O-])cc3)sc2c1` (stereo not drawn): the GI50 in [6] was > 100 µM (inactive); in assay [1], 43.3 µM (inactive); in assay [2], > 100 µM (inactive); in [7], 99.8 µM (inactive); in assay [3], > 100 µM (inactive); in [4], 23.6 µM (inactive). Further, in assay [8], the GI50 was > 100 µM (inactive).

Turning to `O=C1C=CC(=O)C2=C1[C@@H](O)C1CC=CC3C(=O)O[C@@H]2C31` (stereo partly drawn), the GI50 was 18.2 µM (inactive) in assay [6]; 22.7 µM (inactive) in assay [1]; 21.9 µM (inactive) in assay [2]; 29.4 µM (inactive) in assay [7]; 23.5 µM (inactive) in assay [3]; 15.6 µM (inactive) in assay [4]. The GI50 in [8] was > 42.7 µM (inactive); in [5] it was 22.1 µM (inactive).

`CCCCC(N)CSSCC(N)CCCC` (stereo not drawn): the GI50 was 21.6 µM (inactive) in [6]; 17.7 µM (inactive) in [1]; 23.4 µM (inactive) in [2]; > 100 µM (inactive) in assay [7]; 16.8 µM (inactive) in [4]; 32.7 µM (inactive) in assay [8]. Besides, the GI50 in assay [5] was 20.3 µM (inactive).

Regarding `CC(C)C(Nc1c2ccccc2[n+](C)c2ccccc12)C(=O)O` (stereo not drawn), the GI50 in [6], in assay [1], in assay [2], in assay [7], in assay [3] and in assay [4] was > 100 µM (inactive) throughout. Further, the GI50 in assay [8] and in [5] was > 100 µM (inactive) throughout.

Take `O=S(=O)(c1ccccc1)n1cc(C[P+](c2ccccc2)(c2ccccc2)c2ccccc2)c2ccccc21`: the GI50 is 2.46 µM (inactive) in [6]; 3.37 µM (inactive) in [1]; 3.21 µM (inactive) in assay [2]; 4.89 µM (inactive) in assay [3]; 1.48 µM (inactive) in [4]; 5.71 µM (inactive) in assay [8]. Further, in assay [5], the GI50 was 3.6 µM (inactive).

On to `O=C(CN1CCOCC1)Nc1nc(-c2ccc(Cl)cc2)cs1`, for which the GI50 was 33.1 µM (inactive) in [6]; 21.3 µM (inactive) in assay [1]; 17.5 µM (inactive) in assay [2]; 38.5 µM (inactive) in assay [7]; 25.2 µM (inactive) in assay [8]; 13.2 µM (inactive) in [5].

Regarding `CSCCOC(=O)C(=[N+]=[N-])c1ccc([N+](=O)[O-])cc1`, the GI50 in assay [6], in [1], in [2], in assay [3], in [4] and in [5] was > 100 µM (inactive) throughout.

On to `CC(=O)OC1CCC2OOC1O2` (stereo not drawn), for which the GI50 in assay [1], in assay [2], in [3] and in [8] was > 100 µM (inactive) throughout.

As to `CCN(CC)c1oc(N(CC)CC)c(C(=O)Nc2ccccn2)c(=O)c1C(C)=O`, the GI50 is > 100 µM (inactive) in assay [6]; > 100 µM (inactive) in assay [1]; > 100 µM (inactive) in assay [2]; > 10 µM (inactive) in [3]; > 100 µM (inactive) in [4]; > 100 µM (inactive) in [8]. The GI50 in assay [5] was > 100 µM (inactive).

Take `CN1C(=O)CC2(C)c3cc(O)ccc3N(C)C12` (stereo not drawn): the GI50 in [6] is > 89.3 µM (inactive); in assay [1], 38.9 µM (inactive); in assay [2] it was > 100 µM (inactive); in assay [7], > 100 µM (inactive); in assay [3] it was > 100 µM (inactive); in [4] it was 27.8 µM (inactive). Also, the GI50 is > 100 µM (inactive) in assay [9], > 67.3 µM (inactive) in [8] and 17.3 µM (inactive) in [5].

`COC(=O)[C@@]1(C)/C(=N/NS(=O)(=O)c2ccc(C)cc2)CCC[C@@H]1C`: the GI50 was 44.7 µM (inactive) in assay [6]; 24.3 µM (inactive) in assay [1]; > 100 µM (inactive) in [7]; > 100 µM (inactive) in assay [3]; > 100 µM (inactive) in assay [4]; > 100 µM (inactive) in assay [8].

Consider `NC1=NCN(C2OC(CO)C(O)C2O)C(=O)N1` (stereo not drawn), for which the GI50 was 6.52 µM (inactive) in assay [6]; 19 µM (inactive) in assay [1]; 7.64 µM (inactive) in assay [2]; 22.4 µM (inactive) in [7]; 14.5 µM (inactive) in assay [3]; 36.9 µM (inactive) in assay [8]. The GI50 in [5] was 17.5 µM (inactive).

`NC(=S)N1N=C2c3ccccc3CC[C@H]2[C@@H]1c1cccs1`: the GI50 was 50.5 µM (inactive) in assay [6]; 22.5 µM (inactive) in assay [1]; 10.8 µM (inactive) in assay [2]; 21.1 µM (inactive) in assay [7]; 23.9 µM (inactive) in assay [3]; 30.8 µM (inactive) in assay [4]. The figures for the GI50 in [8] and in [5] were 32.4 µM (inactive) and 37.2 µM (inactive), respectively.

Consider `COc1cc(OC)c(/C=C2\N=C(C)N(Nc3nnc(NN4C(=O)/C(=C/c5c(OC)cc(OC)cc5OC)N=C4C)c4ccccc34)C2=O)c(OC)c1`, for which the GI50 in [6], in assay [1], in assay [2], in [7], in assay [3] and in assay [4] was > 100 µM (inactive) throughout. Further, the GI50 in [8] is > 100 µM (inactive).

As for `CC(CCC(=O)O)c1ccc(Br)cc1` (stereo not drawn), the GI50 in assay [6], in [1], in [2], in [7], in assay [3] and in [4] was > 100 µM (inactive) throughout. In assay [8], the GI50 was > 100 µM (inactive).

Turning to `NCCCCNc1ccc2c(=O)[nH][nH]c(=O)c2c1`, the GI50 in assay [6], in assay [1], in assay [2], in [7], in assay [3] and in [4] was > 100 µM (inactive) in each case. The GI50 in assay [8] was > 100 µM (inactive).

As for `CC(=O)c1ccccc1NC(=O)C(=O)C(C(=O)c1ccc2ccccc2c1)C1OC(=O)c2ccccc21` (stereo not drawn), the GI50 is 12.2 µM (inactive) in assay [6]; 7.98 µM (inactive) in [1]; 6.32 µM (inactive) in [2]; 14.5 µM (inactive) in assay [7]; 32.2 µM (inactive) in assay [3]; 9.79 µM (inactive) in assay [4]. Moreover, the GI50 is 9.4 µM (inactive) in assay [8] and 3.13 µM (inactive) in assay [5].

`Cc1nc2c(n1-c1ccc(Br)cc1)C(=O)c1ccccc1C2=O`: the GI50 in assay [6] is 7.59 µM (inactive); in assay [1], 26 µM (inactive); in assay [2] it was 4.49 µM (inactive); in assay [9], 2.06 µM (inactive); in assay [8], 14.6 µM (inactive).

With `CCCc1nc(N)nc(C(=O)Nc2cccc(C(F)(F)F)c2)c1CC`, the GI50 in [6], in assay [1], in [2], in [7], in assay [3] and in assay [8] was > 100 µM (inactive) each time. For the same compound, the GI50 in assay [5] is > 100 µM (inactive).
